Assay results as given in patent US20160010047A1, “DEVICE AND METHOD FOR WETTING A SAMPLE WITH AN AEROSOL” (Helmholtz Zentrum Muenchen Deutsches Forschungszentrum fuer …, priority 2013, published 2016).

System: human pulmonary cell line (A549) stimulated with TNFα; interleukin 8 (IL-8)
Test: Anti-inflammatory effect on TNFα-stimulated A549 cells (IL-8 as inflammatory marker), substance applied as aerosol at the ALI with device 2 or pipetted on submerged cells
Assay type: cell-based
Conditions: FIG. 4
From the text: On the other hand, if polarized lung epithelial cells (e.g. primary cells) are used, significant differences in the biological response can be expected. After stimulation of A549 cells with the tumor necrosis factor α (TNF α), the interleukin 8 (IL-8) as inflammatory marker is induced approximately 7-fold (corresponds to value 1 in FIG. 4), relative to the basal value (non-stimulated cells). […] This exemplifies that with device 2, aerosolized active substances can be applied accurately dosed and without loss of bioactivity (e.g. due to shear stresses during nebulization) on human pulmonary cells at the ALI. Thus, device 2 is suitable for the systematic screening of substances with respect to their potential as an active ingredient in aerosolized form.
This device 2 is thereby validated as a tool for quantitative drug screening for aerosolized liquid substances.

In the case of CC(C)C[C@H](NC(=O)[C@H](Cc1ccccc1)NC(=O)c1cnccn1)B(O)O [Bortezomib], the “dose-response curve after administration in aerosolized form with device 2 (ALI) compared with reference curve (substance pipetted on submerged cells)” value (A549 cells at the ALI, TNFα-stimulated) is reported as “identical to the reference curve” and the “reduction of the TNFα-induced inflammatory effect (IL-8 induction), factor” value (A549 cells, non-polarized, stimulated with TNFα, dose-dependent) is reported as no more than 2.
